The text below walks through data of US20220184028A1, “TREATMENT OF AMYOTROPHIC LATERAL SCLEROSIS USING PKC ACTIVATORS” (Synaptogenix, Inc., priority 2020, published 2022).

The nature of this data set: Blood-brain-barrier crossing, brain and plasma levels in mice. The note with it: intravenous. The data set is classed as in vivo. Here is the method: Further evaluation may be performed on bryostatin or other PKC activating compound crossing the blood-brain-barrier (BBB) and the steady state levels of bryostatin or other PKC activating compound in the brain and plasma of mice.
In contrast, plasma concentrations of bryostatin or other PKC activating compound may be greater when the drug is administered as a single injection for three consecutive weeks. Blood plasma concentrations of bryostatin or other PKC activating compound may be less in mice receiving a 25 μg/m^2 dose as a “1 on/1 off” or a “2 on/1 off” administration. Without being bound to a specific theory, it may be hypothesized that the intermittent dosing regimen facilitates the transport of bryostatin or other PKC activating compound across the BBB.

The structures appear in SMILES notation.

Turning to `CCC/C=C/C=C/C(=O)O[C@H]1/C(=C/C(=O)OC)C[C@H]2C[C@H]([C@@H](C)O)OC(=O)C[C@H](O)C[C@@H]3C[C@H](OC(C)=O)C(C)(C)[C@](O)(C[C@@H]4C/C(=C/C(=O)OC)C[C@H](/C=C/C(C)(C)[C@]1(O)O2)O4)O3` [Bryostatin-1], the crossing the blood-brain-barrier result was “crosses the BBB”.
